Reference: US8653261B2, “Modified actinomycin-based nucleic acid stains and methods of their use” (priority 2008, dated 2014)

How the values were obtained:
dead cells = details: dead cell identification; cited from earlier work
fixed cells = details: cited from earlier work
HeLa cells = experiment: High content imaging of stained HeLa cells with valinomycin treatment; format: cell-based; details: for killing of HeLa cells: 24 hours
Description: HeLa cells were either untreated or treated with two concentrations (15 μM and 120 μM) of valinomycin (VLM) as a killing agent for 24 hours before labeling with Compound 7 and with the nuclear counterstain Hoechst 33342 dye (Invitrogen Corporation, Carlsbad, Calif.). At 24 hours of treatment, normal cell growth medium containing 2× final concentration of Hoechst 33342 and Compound 7 was added to the existing medium to result in 1× final concentration. Cells were incubated for 30 minutes at 37° C. and then the drug/dye mixture was replaced with PBS for imaging using a high content automated imaging system (ArrayScan VTI from Thermo/Fisher) using a Texas Red filter set.

Jurkat T cells = experiment: Imaging flow cytometry of stained Jurkat cells with camptothecin treatment; format: cell-based; details: 1 μM camptothecin, 4 hours
Description: Jurkat T cells were incubated in the presence or absence of 1 μM camptothecin (CPT) for 4 hours to induce apoptosis, then stained with 2.5 μM Compound 7 for 15 minutes at room temperature and analyzed on an AMNIS ImageStream multispectral imaging flow cytometer. Gating on 10,000 collected events with intermediate brightfield (BF) area and high BF aspect ratio (width:height) was performed to distinguish single cells from debris and multi-cellular clumps. Cells with nuclear dye uptake were gated (R3) on the Intensity 180 plot. Cells untreated with camptothecin are shown in the top middle histogram of FIG. 3, with 8.0% stain positive (dead cells) as identified in the R3 gate. The positively stained cells show typical brightfield morphology of dead cells, while the cells negative (live cells) show typical brightfield morphology of live cells.
Cells treated with the apoptotic inducing agent camptothecin (FIG. 3B) (bottom middle histogram), with 68.4% stain positive as identified in the R3 gate. The positively stained cells show typical brightfield morphology of dead cells and stained nuclei typical of apoptosis and cell death that is condensed and fragmented, while the cells negative for staining (live cells) show typical brightfield morphology of live cells. […] Cells negative for stain show morphology typical of healthy cells.

SMILES: Cc1c2oc3c(C)c(N)cc(C(=O)N[C@@H]4C(=O)N[C@H](C(C)C)C(=O)N5CCC[C@H]5C(=O)N(C)CC(=O)N(C)[C@@H](C(C)C)C(=O)O[C@@H]4C)c3nc-2c(C(=O)N[C@@H]2C(=O)N[C@H](C(C)C)C(=O)N3CCC[C@H]3C(=O)N(C)CC(=O)N(C)[C@@H](C(C)C)C(=O)O[C@@H]2C)c(N)c1=O [Compound 7-AAD, 7-aminoactinomycin D]
- time of staining process to fully equilibrate (dead cells): about 30 minutes
- variability of DNA content cell cycle histogram (% CV of the G0G1 peak) (fixed cells): high degree of variability

SMILES: CCOc1ccc(-c2nc3ccc(-c4nc5ccc(N6CCN(C)CC6)cc5[nH]4)cc3[nH]2)cc1 [Hoechst 33342]
- nuclear counterstain labeling of HeLa cells (HeLa cells; untreated or valinomycin-treated cells): labeling both live and dead cells

SMILES: CC[C@@]1(O)C(=O)OCc2c1cc1n(c2=O)Cc2cc3ccccc3nc2-1 [camptothecin]
- cell death measurable by staining with Compound 7 (Jurkat T cells): induced significant cell death

SMILES: CC(C)[C@@H]1NC(=O)[C@H](C)OC(=O)[C@@H](C(C)C)NC(=O)[C@@H](C(C)C)OC(=O)[C@H](C(C)C)NC(=O)[C@H](C)OC(=O)[C@@H](C(C)C)NC(=O)[C@@H](C(C)C)OC(=O)[C@H](C(C)C)NC(=O)[C@H](C)OC(=O)[C@@H](C(C)C)NC(=O)[C@@H](C(C)C)OC1=O [valinomycin]
- killing of HeLa cells (HeLa cells; 15 μM valinomycin): less effective in killing HeLa cells
- killing of HeLa cells (HeLa cells; 120 μM valinomycin): effective in killing HeLa cell
